Key:
[1] = test system: Mycobacterium smegmatis ATCC 607; assay: Antibacterial activity by the agar cylinder plate method, Mycobacterium smegmatis ATCC607; format: cell-based; details: copper-containing compound, standard bleomycin A2 = 1,000 mcg potency/mg
Excerpt: (§1) (1) Antibacterial activity against Mycobacterium smegmatis ATCC607 and Bacillus subtilis
(§2) The above activity ws determined by the agar cylinder plate method using the above microorganisms.

Bacillus subtilis = assay: Antibacterial activity by the agar cylinder plate method, Bacillus subtilis; format: cell-based; details: copper-containing compound, standard bleomycin A2 = 1,000 mcg potency/mg
Excerpt: as §1, §2

ICR mice = assay: Pulmonary toxicity (fibrosis of the lung) in mice; details: for Incidence: Number of mice with pulmonary fibrosis/Number of mice in the treatment group / Incidence (%) of pulmonary fibrosis / Grade: Total score for pulmonary fibrosis/Total specimens / Grade of pulmonary fibrosis (total score divided by total number of specimens): 5 mg/kg i.p. once daily for 10 days; for Incidence: Number of mice with pulmonary fibrosis/Number of mice in the treatment group / Incidence (%) of pulmonary fibrosis: autopsy after 5 weeks of observation; for Incidence: Number of mice with pulmonary fibrosis/Number of mice in the treatment group: count; for Incidence (%) of pulmonary fibrosis: percentage in parentheses; for Grade: Total score for pulmonary fibrosis/Total specimens / Grade of pulmonary fibrosis (total score divided by total number of specimens): autopsy after 5 weeks, scores 0, 1, 2, 4, 6 points; for Grade: Total score for pulmonary fibrosis/Total specimens: fraction; for Grade of pulmonary fibrosis (total score divided by total number of specimens): value in parentheses; for Grade ratio: grade of the test compound to that of bleomycin complex; for Incidence ratio: incidence of the test compound to that of bleomycin complex
Method: ICR mice (male, 15-week-old) were used in groups of 10 each. The dose of each test compound was 5 mg/kg injected intraperitoneally once daily for 10 consecutive days. After the administration of the compound was completed, the animals were reared for 5 weeks for observation. Then, the animals were killed and autopsied so that the incidence and grade of pulmonary fibrosis were examined.
The incidence of pulmonary fibrosis was expressed as the number of mice developing pulmonary fibrosis in the group of mice administered the test compound. The grade of pulmonary fibrosis was expressed as the total score for pulmonary fibrosis divided by the total number of specimens.
1 point: Accumulation of exudate in the alveoli, and fibrosis-like changes seen in the alveolar septum.
2 points: Fibrosis seen at several sites.
4 points: Sporadic fibrosis.
6 points: Extensive fibrosis (fibrosis seen in more than 170 of the total region).
The ratio in the table represents the ratio of the incidence of the test compound to that of bleomycin complex, or the ratio of the grade of the test compound to that of bleomycin complex.

SMILES | Antibacterial titer of copper-compound [1] [mcg potency/mg] | Antibacterial titer of copper-compound (Bacillus subtilis) [mcg potency/mg] | Incidence: Number of mice with pulmonary fibrosis/Number of mice in the treatment group (ICR mice) | Incidence (%) of pulmonary fibrosis (ICR mice) [%] | Grade: Total score for pulmonary fibrosis/Total specimens (ICR mice) | Grade of pulmonary fibrosis (total score divided by total number of specimens) (ICR mice) | Grade ratio (ICR mice) | Incidence ratio (ICR mice) | Grade of pulmonary fibrosis (total score divided by total number of specimens) (ICR mice; the values are: mean fibrosis score per specimen)
Cc1c(N)nc(C(CC(N)=O)NCC(N)C(N)=O)nc1C(=O)NC(C(=O)NC(C)C(O)C(C)C(=O)NC(C(=O)NCCc1nc(-c2nc(C(=O)NCCCN(CCCCN(Cc3ccccc3)Cc3ccccc3)Cc3ccccc3)cs2)cs1)C(C)O)C(OC1OC(CO)C(O)C(O)C1OC1OC(CO)C(O)C(OC(N)=O)C1O)c1cnc[nH]1 (centres unmarked) [Compound 1, 3-[N-benzyl-N-(4'-dibenzylaminobutyl)amino]propylaminobleomycin] | 17360 | 400 | 0/10 | 0 | 0/30 | 0 | 0.00 | 0.00 | –
Cc1c(N)nc(C(CC(N)=O)NCC(N)C(N)=O)nc1C(=O)NC(C(=O)NC(C)C(O)C(C)C(=O)NC(C(=O)NCCc1nc(-c2nc(C(=O)NCCCN(CCCCN(Cc3ccc(Cl)cc3)Cc3ccc(Cl)cc3)Cc3ccc(Cl)cc3)cs2)cs1)C(C)O)C(OC1OC(CO)C(O)C(O)C1OC1OC(CO)C(O)C(OC(N)=O)C1O)c1cnc[nH]1 (centres unmarked) [Compound 2, 3-{N--p-chlorobenzyl-N--[4'-bis(p-chlorobenzyl)aminobutyl]amino}propylaminobleomycin] | 613 | 129 | 0/10 | 0 | 0/30 | 0 | 0.00 | 0.00 | –
Cc1c(N)nc(C(CC(N)=O)NCC(N)C(N)=O)nc1C(=O)NC(C(=O)NC(C)C(O)C(C)C(=O)NC(C(=O)NCCc1nc(-c2nc(C(=O)NCCCN(CCCCN(Cc3ccc(Cl)c(Cl)c3)Cc3ccc(Cl)c(Cl)c3)Cc3ccc(Cl)c(Cl)c3)cs2)cs1)C(C)O)C(OC1OC(CO)C(O)C(O)C1OC1OC(CO)C(O)C(OC(N)=O)C1O)c1cnc[nH]1 (centres unmarked) [Compound 3, 3-{N--m,p-dichlorobenzyl-N--[4'-bis(m,p-dichlorobenzyl)aminobutyl]amino}propylaminobleomycin] | 217 | 43 | 0/10 | 0 | 0/30 | 0 | 0.00 | 0.00 | –
Cc1c(N)nc(C(CC(N)=O)NCC(N)C(N)=O)nc1C(=O)NC(C(=O)NC(C)C(O)C(C)C(=O)NC(C(=O)NCCc1nc(-c2nc(C(=O)NCCC[N+](C)(C)CCCCN(Cc3ccccc3)Cc3ccccc3)cs2)cs1)C(C)O)C(OC1OC(CO)C(O)C(O)C1OC1OC(CO)C(O)C(OC(N)=O)C1O)c1cnc[nH]1 (centres unmarked) [Compound 11, 3-[N,N-dimethyl-N-(4'-dibenzyl-aminobutyl)amino]propylaminobleomycin] | 20160 | 2528 | – | – | – | – | – | – | –
Cc1c(N)nc(C(CC(N)=O)NCC(N)C(N)=O)nc1C(=O)NC(C(=O)NC(C)C(O)C(C)C(=O)NC(C(=O)NCCc1nc(-c2nc(C(=O)NCCCNCCCCN)cs2)cs1)C(C)O)C(OC1OC(CO)C(O)C(O)C1OC1OC(CO)C(O)C(OC(N)=O)C1O)c1c[nH]cn1 (centres unmarked) [Compound A5, 3-(4'-aminobutylamino)propylaminobleomycin, reference compound] | – | – | 5/10 | 50 | 5/30 | – | 0.29 | 0.71 | 0.17
